For series [1] the following is noted: retrospective reports / meta-analysis of overdose deaths; cited from earlier work.
In series [2] the test system is myelin basic protein (MBP). As to the kind of experiment: Immunohistochemistry of myelin basic protein. The format is in vivo, rat. The settings on record: 10 mg/kg IP, 24 h. Here is the method:
Immunohistochemistry: The in-life portion of the study was conducted at WuXi Apptec (Cranbury, NJ). Sectioning and staining of brains took place at Neuroscience Associates (NSA, Knoxville, TN). […] Brains were post-fixed in PFA before shipment to NSA for processing and staining. Hemisected brains were mounted, sectioned and stained using standard protocols with myelin-basic protein primary antibody (MBP SMI-99, 1:5000, Biolegend, San Diego, CA) and anti-mouse biotinylated secondary antibody (BA-2001, Vector Laboratories, Newark, CA). Slides were imaged using a Huron Digital Pathology TissueScope LE120 whole slide scanning system. 20× objective was used with a 0.4 μm/pixel resolution.

The next series has as its target T1, 5HT2A receptor (Homo sapiens, UniProt P28223).
T1 construct: beta-galactosidase enzyme fragment (PathHunter complementation tag); host or cells: PathHunter cell lines
Nature of the series: GPCRmax screen, agonist mode. The format is cell-based. As to conditions: 1 or 10 mM; threshold 30%.

For a further series, the system named is mice. As to conditions: MDMA 7.5 mg/kg 30 minutes prior to extinction training (Young et al. 2015); cited from earlier work.
For series [3], the target named is T2, 5HT2C receptor (Homo sapiens, UniProt P28335).
T2 construct: beta-galactosidase enzyme fragment (PathHunter complementation tag); host or cells: PathHunter cell lines
As to the kind of experiment: GPCRmax screen, antagonist mode. The format is cell-based. The settings on record: 1 or 10 mM; threshold 50%.

For series [4], the system named is rats (Sprague Dawley; Flinders Sensitive Line). The settings on record: cited from earlier work.
In series [5] the test system is gene expression in amygdala, frontal cortex, hippocampus. Nature of the series: RNA-sequencing of brain areas after a single dose. In kind it is in vivo, rat.
The target of series [6] is T2, 5HT2C receptor. Nature of the series: GPCRmax screen, agonist mode. In kind it is cell-based. As to conditions: 1 or 10 mM; threshold 30%.

Structures are written as SMILES. Like-named read-outs stand apart in the source and are kept apart here.

T2 sequence (P28335 33-458): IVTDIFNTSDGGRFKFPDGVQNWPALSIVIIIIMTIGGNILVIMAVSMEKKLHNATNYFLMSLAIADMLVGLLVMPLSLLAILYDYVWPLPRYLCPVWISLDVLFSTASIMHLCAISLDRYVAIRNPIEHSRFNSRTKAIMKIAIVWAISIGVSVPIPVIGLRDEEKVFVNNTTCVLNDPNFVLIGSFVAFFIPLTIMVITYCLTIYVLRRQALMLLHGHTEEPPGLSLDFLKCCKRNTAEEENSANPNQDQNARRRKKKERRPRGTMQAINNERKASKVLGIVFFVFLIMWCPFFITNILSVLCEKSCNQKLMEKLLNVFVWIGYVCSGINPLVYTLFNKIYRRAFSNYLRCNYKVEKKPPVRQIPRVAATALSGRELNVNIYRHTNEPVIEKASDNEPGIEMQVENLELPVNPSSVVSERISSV
T1 sequence (P28223 whole entry, the tested form may be a part): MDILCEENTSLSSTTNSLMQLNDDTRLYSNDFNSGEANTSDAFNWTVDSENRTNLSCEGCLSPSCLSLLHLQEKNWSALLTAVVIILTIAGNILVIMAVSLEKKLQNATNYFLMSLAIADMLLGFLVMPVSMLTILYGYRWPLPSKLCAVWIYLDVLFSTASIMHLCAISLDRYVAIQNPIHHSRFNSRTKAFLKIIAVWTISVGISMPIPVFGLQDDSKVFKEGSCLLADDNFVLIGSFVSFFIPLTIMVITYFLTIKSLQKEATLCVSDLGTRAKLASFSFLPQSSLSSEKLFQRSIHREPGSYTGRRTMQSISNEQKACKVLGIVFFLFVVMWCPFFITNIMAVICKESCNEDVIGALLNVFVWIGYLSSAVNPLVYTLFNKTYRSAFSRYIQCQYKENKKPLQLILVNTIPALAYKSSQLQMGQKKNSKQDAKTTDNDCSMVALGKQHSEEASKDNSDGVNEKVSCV

In the case of `CNC(C)Cc1ccc2c(c1)OCO2` (racemic) [MDMA, 3,4-Methylenedioxymethamphetamine], the “blood concentration in overdose deaths” value in series [1] is 478 to 53900 ng/mL. For the same compound, the “MBP expression, basolateral nucleus of the amygdala, vs. vehicle” value in series [2] is given as “significant reduction in MBP”. Also, in series [2], the “MBP expression, central nucleus of the amygdala, vs. vehicle” value is recorded as “significant reduction in MBP”. The “MBP expression, cortex (control region)” value in series [2] is listed as “No change in MBP”. The agonist % activity on 5HT2A receptor came out at 27.5%; at 5HT2C receptor [6], 28.0%. In the series on mice, the “reduced freezing vs. saline (extinction recall)” value is 35%. In addition, on 5HT2C receptor [3], the “antagonist activity (% inhibition)” value was determined as 52.2%. Further, the “reduction in immobility (FST)” value in series [4] (MDMA 5 mg/kg, Flinders Sensitive Line rats) is 45%; in series [4] (MDMA 5 mg/kg, Sprague Dawley rats (Majumder et al. 2011)) it was 45%; in series [4] (MDMA 10 mg/kg, Flinders Sensitive Line rats), 93%; in series [4] (MDMA 10 mg/kg, Sprague Dawley rats (Majumder et al. 2011)) it was 78%. Moreover, the “more genes regulated than methylone, frontal cortex” value in series [5] (10 mg/kg IP) is given as ~72%. The “genes regulated by MDMA that are also regulated by methylone, amygdala” value in series [5] (10 mg/kg IP each) amounted to 7%.

The record behind these values is patent US12343326B2, “Psychoactive medicines and their use for treating psychiatric and neurological conditions and disorders” (Transcend Therapeutics, Inc., priority 2021, dated 2025).
